Here are results for 20 sequences from article PMC9816411, “Host-derived chimeric peptides clear the causative bacteria and augment host innate immunity during infection: A case study of HLB in citrus and fire blight in apple” (Frontiers in Plant Science, 2022).

Ends that are not written are not given here.

Assay [1] has as its system E. coli strain BL21 (and, in some cases, ATCC25922). The following applies: BL21, 24 h.
For the next assay, the system named is E. coli BL21. Conditions: BL21, 24 h.

Consider IERSTNLDWYKGPTLL [16P-1], for which the MIC in assay [1] was above 20 µM.
For the sequence KKLPKEILKILGSGYGSLPKEILKILELKK [Gen-1], in the assay on E. coli BL21, half-maximal inhibition (IC50) was put at 10.22 ± 0.07 µM and the “IC99 (~MIC)” value was determined as 11.4 ± 0.07 µM. This sequence also gave a minimal inhibitory concentration (MIC) in assay [1] of 5 to 10 µM.
Regarding IERSRNLDWYKGPTLLDALKNLNEGKRPSDK [I31LB], in assay [1], the MIC is above 20 µM.
The sequence QPKRLEELLEKLKSLEGSKAHEKLHDWTRK [UGK-49] displayed an MIC in assay [1] above 20 µM.
On to KKLIKKILKIL [11P-1], for which, in the assay on E. coli BL21, half-maximal inhibition (IC50) required 12.9 ± 0.62 µM and the “IC99 (~MIC)” value worked out at 29.38 ± 0.75 µM. Also, the MIC in assay [1] fell in the range of 10 to 20 µM.
With RRWWRWWR [8P-1], in assay [1], the MIC was above 20 µM.
Consider FWQRRIRRWRRGSGYGSPGRRWWRWWR [27P-2], for which the MIC in assay [1] fell in the range of 5 to 10 µM.
Still for that read-out and setting: next, FQWQRNIRKVR [11P-2]: above 20 µM; LPKRLEELLQKLKSLEGSKAHEKLHDWTRK [UGK-45]: above 20 µM; KPRLSEQLQELTRRLLDSPLERRWWEWWRR [UGK-33]: above 20 µM.
Consider KPRGSEQLQELTRRLLDSPLERRWWEWMRR [UGK-29], for which the MIC in assay [1] was above 20 µM.
Still for that read-out and setting: next, RRWWRWWRGSGYGSPGFWQRRIRRWRR [27P-1]: above 20 µM; RLPEAFQWQRNIRKVRRPDSPGRRWWRWWR [UGK-9]: 5 to 10 µM; RLPEAFQWQRRLRRWRRPDSPGRRWWRWWR [UGK-5]: 5 to 10 µM.
For FWQRRIRRWRR [11P-3], in the assay with E. coli BL21, the IC50 worked out at 49 ± 2.79 µM and the “IC99 (~MIC)” value was 160.80 ± 3.25 µM. This sequence displayed an MIC in assay [1] above 20 µM.
In turn, KRPEELLQKLKSLEGSKAHLQHHDWTSK [UGK-41] showed an MIC in assay [1] above 20 µM.
In turn, FWQRRIRRWRRGSGYGSPGKKLIKKILKIL [30P-2] registered a minimal inhibitory concentration (MIC) in assay [1] of 1.25 to 2.5 µM.
Sequence RRWWRWWRGSYGSVYGSPGFWQRRIRRWRR [UGI-7] yielded an MIC in assay [1] of 5 to 10 µM.
On the same count and under the same terms, in the case of RLPKAFQWQRRLRRWRRPYSPGRRWWRWWR [UGK-1] it was 5 to 10 µM.
Take KPRGSEQLQELTRRLLDSPLERRFWQWMRR [UGK-37]: in assay [1], the MIC is above 20 µM.
